Measurements: patent publication US8084479B2, “Thiazole compounds and methods of use” (Amgen Inc., priority 2006, dated 2011)

Target: PKBα (Homo sapiens, UniProt P31749)
Experiment: PKB kinase assay (P33-labeled ATP, peptide substrate, filter plate)
Assay type: biochemical
Settings: PKBα enzyme (full length or kinase domain with pleckstrin domain deleted)
From the text: The kinase assay for evaluating PKB activity comprises active PKB enzymes, a PKB specific substrate, and P^33-labeled ATP. […] The phosphorylated substrate was captured by a phosphocellulose membrane filter plate (MLLIPORE) and measured by a Wallac Microbeta liquid scintillation counter (Perkin Elmer).

PKBα, sequence (P31749 118-480 limits assumed): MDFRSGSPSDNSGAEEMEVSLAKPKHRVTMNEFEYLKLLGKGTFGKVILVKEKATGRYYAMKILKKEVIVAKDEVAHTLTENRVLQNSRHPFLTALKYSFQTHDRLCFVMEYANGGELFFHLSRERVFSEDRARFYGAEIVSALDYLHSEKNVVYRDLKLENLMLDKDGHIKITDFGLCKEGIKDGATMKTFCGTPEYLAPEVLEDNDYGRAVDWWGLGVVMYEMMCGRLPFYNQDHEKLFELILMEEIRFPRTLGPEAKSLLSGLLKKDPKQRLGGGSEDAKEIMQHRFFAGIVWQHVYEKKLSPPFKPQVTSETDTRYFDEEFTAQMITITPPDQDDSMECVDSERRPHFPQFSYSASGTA

SMILES | IC50
C[C@@H](c1ccccc1)[C@H](N)CNc1ncc(-c2ccc3[nH]c(=O)n(C)c3c2)s1 [Example 89, 6-(2-((2S,3S)-2-Amino-3-phenylbutylamino)thiazol-5-yl)-1-methyl-1H-benzo[d]imidazol-2(3H)-one] | 1000 to 10000 nM
N[C@H](CNc1nc(CO)c(-c2ccc3[nH]c(=O)oc3c2)s1)Cc1ccc(C(F)(F)F)cc1 [Example 125, 6-(2-((S)-2-Amino-3-(4-(trifluoromethyl)phenyl)propylamino)-4-(hydroxymethyl)thiazol-5-yl)benzo[d]oxazol-2(3H)-one] | < 50 nM
N[C@H](CNc1ncc(-c2ccc3c(c2)CC(=O)N3)s1)Cc1ccc(Cl)c(Cl)c1 [Example 114, 5-(2-((S)-2-Amino-3-(3,4-dichlorophenyl)propylamino)thiazol-5-yl)indolin-2-one] | < 50 nM
N[C@H](CNc1ncc(-c2ccc3[nH]c(=O)oc3c2)s1)[C@@H](CO)c1ccc(C(F)(F)F)cc1 [Example 160, 6-(2-((2S,3S)-2-amino-4-hydroxy-3-(4-(trifluoromethyl)phenyl)butylamino)thiazol-5-yl)benzo[d]oxazol-2(3H)-one] | < 50 nM
N[C@H](CNc1ncc(-c2ccc3cnccc3c2)s1)Cc1cccc(Cl)c1 [Example 66, N—((S)-2-amino-3-(3-chlorophenyl)propyl)-5-(isoquinolin-6-yl)thiazol-2-amine] | < 50 nM
C[C@@H](Nc1ncc(-c2ccc3cnccc3c2)s1)[C@@H](N)Cc1ccc(C(F)(F)F)cc1 [Example 230, N-((2R,3S)-3-amino-4-(4-(trifluoromethyl)phenyl)butan-2-yl)-5-(isoquinolin-6-yl)thiazol-2-amine] | < 50 nM
COCOC(c1ccc(C(F)(F)F)cc1)C(N)CNc1ncc(-c2ccc3c(c2)CC(=O)N3)s1 (stereo not drawn) [Example 244] | 1000 to 10000 nM
N[C@H](CNc1ncc(-c2ccc3c(c2F)CC(=O)N3)s1)Cc1ccc(C(F)(F)F)cc1 [Example 224, 5-(2-((S)-2-amino-3-(4-(trifluoromethyl)phenyl)propylamino)thiazol-5-yl)-4-fluoroindolin-2-one] | < 50 nM
NC(CNc1ncc(-c2ccc3[nH]c(=O)oc3c2)s1)Cc1ccc(O)c(F)c1 (stereo not drawn) [Example 216, 6-(2-(2-Amino-3-(3-fluoro-4-hydroxyphenyl)propylamino)thiazol-5-yl)benzo[d]oxazol-2(3H)-one] | 50 to 1000 nM
N[C@H](CNc1ncc(-c2ccc3[nH]c(=O)oc3c2)s1)Cc1ccc(C(F)(F)F)nc1 [Example 172, 6-(2-((S)-2-amino-3-(6-(trifluoromethyl)pyridine-3-yl)propylamino)thiazol-5-yl)benzo[d]oxazol-2(3H)-one] | < 50 nM
N[C@H](CNc1ncc(-c2ccc3c(O)nncc3c2)s1)Cc1ccc(C(F)(F)F)cc1 [Example 65, 6-(2-((S)-2-amino-3-(4-(trifluoromethyl)phenyl)propylamino)thiazol-5-yl)phthalazin-1-ol] | 50 to 1000 nM
N[C@H](CNc1ncc(-c2ccc3cnccc3n2)s1)Cc1ccc(C(F)(F)F)cc1 [Example 68, N—((S)-2-amino-3-(4-(trifluoromethyl)phenyl)propyl)-5-(1,6-naphthyridin-2-yl)thiazol-2-amine] | < 50 nM
N[C@H](CNc1ncc(-c2ccc3cnccc3c2)s1)Cc1ccc(Cl)c(Cl)c1 [Example 132, N—((S)-2-Amino-3-(3,4-dichlorophenyl)propyl)-5-(isoquinolin-6-yl)thiazol-2-amine] | < 50 nM
C[C@@H](Nc1ncc(-c2ccc3[nH]c(=O)oc3c2)s1)[C@@H](N)Cc1ccc(C(F)(F)F)cc1 [Example 231, 6-(2-((2R,3S)-3-amino-4-(4-(trifluoromethyl)phenyl)butan-2-ylamino)thiazol-5-yl)benzo[d]oxazol-2(3H)-one] | 50 to 1000 nM
Cn1c(=O)[nH]c2ccc(-c3cnc(NC[C@@H](N)Cc4cccc(C(F)(F)F)c4)s3)cc21 [Example 82, 6-(2-((S)-2-Amino-3-(3-(trifluoromethyl)phenyl)-propylamino)thiazol-5-yl)-1-methyl-1H-benzo[d]imidazol-2(3H)-one] | 50 to 1000 nM
N[C@H](CNc1nc(CO)c(-c2ccc3[nH]ncc3c2)s1)Cc1ccc(C(F)(F)F)cc1 [Example 12, (2-((S)-2-amino-3-(4-(trifluoromethyl)phenyl)propylamino)-5-(1H-indazol-5-yl)thiazol-4-yl)methanol] | < 50 nM

The remaining lines, values ahead:

IC50 | SMILES
1000 to 10000 nM | C[C@@H](c1ccccc1)[C@H](N)CNc1ncc(-c2ccc3c(c2)CC(=O)N3)s1 [Example 90, 5-(2-((2S,3S)-2-Amino-3-phenylbutylamino)thiazol-5-yl)indolin-2-one]
50 to 1000 nM | N[C@H](CNc1nc(-c2cccc(F)c2F)c(-c2ccc3cnccc3c2)s1)Cc1ccc(C(F)(F)F)cc1 [Example 100, N—((S)-2-Amino-3-(4-(trifluoromethyl)phenyl)propyl)-4-(2,3-difluorophenyl)-5-(isoquinolin-6-yl)thiazol-2-amine]
50 to 1000 nM | N[C@H](CNc1ncc(-c2ccc3c(c2)CC(=O)N3)s1)Cc1ccc(C(F)(F)F)c(O)c1 [Example 209, 5-(2-((S)-2-amino-3-(3-hydroxy-4-(trifluoromethyl)phenyl)propylamino)thiazol-5-yl)indolin-2-one]
< 50 nM | N[C@H](CNc1ncc(-c2ccc3c(c2)CC(=O)N3)s1)Cc1ccc(C(F)(F)F)cc1 [Example 42, 5-(2-((S)-2-amino-3-(4-(trifluoromethyl)phenyl)propylamino)thiazol-5-yl)indolin-2-one]
50 to 1000 nM | Cc1ccc(C[C@H](N)CNc2ncc(-c3ccc4c(c3)CC(=O)N4)s2)cc1 [Example 116, 5-(2-((S)-2-Amino-3-p-tolylpropylamino)thiazol-5-yl)indolin-2-one]
< 50 nM | C/C=C/[C@@H](c1ccc(C(F)(F)F)cc1)[C@H](N)CNc1ncc(-c2ccc3cnccc3c2)s1 [Example 154, N-((2S,3S,E)-2-amino-3-(4-(trifluoromethyl)phenyl)hex-4-enyl)-5-(isoquinolin-6-yl)thiazol-2-amine]
< 50 nM | Cn1c(=O)[nH]c2ccc(-c3cnc(NC[C@@H](N)Cc4ccc(Cl)c(F)c4)s3)cc21 [Example 87, 6-(2-((S)-2-Amino-3-(4-chloro-3-fluorophenyl)propylamino)thiazol-5-yl)-1-methyl-1H-benzo[d]imidazol-2(3H)-one]
50 to 1000 nM | N[C@H](CNc1nc(C(F)(F)F)c(-c2ccc3cnccc3c2)s1)Cc1ccc(Cl)cc1 [Example 168]
< 50 nM | N[C@H](CNc1ncc(-c2ccc3[nH]c(=O)oc3c2)s1)Cc1ccc(Cl)c(F)c1 [Example 84, 6-(2-((S)-2-Amino-3-(4-chloro-3-fluorophenyl)propylamino)thiazol-5-yl)benzo[d]oxazol-2(3H)-one]
< 50 nM | N[C@H](CNc1ncc(-c2cc3c(cc2F)NC(=O)C3)s1)Cc1ccc(C(F)(F)F)cc1 [Example 214, 5-(2-((S)-2-amino-3-(4-(trifluoromethyl)phenyl)propylamino)thiazol-5-yl)-6-fluoroindolin-2-one]
50 to 1000 nM | N[C@H](CNc1ncc(-c2cc3oc(=O)[nH]c3cc2F)s1)Cc1ccc(C(F)(F)F)nc1 [Example 219, 6-(2-((S)-2-amino-3-(6-(trifluoromethyl)pyridin-3-yl)propylamino)thiazol-5-yl)-5-fluorobenzo[d]oxazol-2(3H)-one]
50 to 1000 nM | N[C@H](CNc1nc(-c2cccc(F)c2)c(-c2ccc3cnccc3c2)s1)Cc1ccc(C(F)(F)F)cc1 [Example 103, N—((S)-2-amino-3-(4-(trifluoromethyl)phenyl)propyl)-4-(3-fluorophenyl)-5-(isoquinolin-6-yl)thiazol-2-amine]
50 to 1000 nM | C[C@@H](c1ccccc1)[C@H](N)CNc1ncc(-c2ccc3cnccc3c2)s1 [Example 91, N-((2S,3S)-2-Amino-3-phenylbutyl)-5-(isoquinolin-6-yl)thiazol-2-amine]
50 to 1000 nM | N[C@H](CNc1ncc(-c2ccc3c(c2)/C(=C/c2ccco2)C(=O)N3)s1)Cc1c[nH]c2ccccc12 (stereo in doubt) [Example 72, (E)- and (Z)-5-(2-((S)-2-amino-3-(1H-indol-3-yl)propylamino)thiazol-5-yl)-3-(furan-2-ylmethylene)indolin-2-one ditrifluoroacetates]
< 50 nM | N[C@H](CNc1ncc(-c2ccc3[nH]c(=O)oc3c2)s1)Cc1ccc(Cl)cc1 [Example 55, 6-(2-((S)-2-Amino-3-(4-chlorophenyl)propylamino)thiazol-5-yl)benzo[d]oxazol-2(3H)-one]
50 to 1000 nM | COCc1nc(NC[C@@H](N)Cc2ccc(C(F)(F)F)cc2)sc1-c1ccc2[nH]c(=O)n(C)c2c1 [Example 58, 6-(2-((S)-2-amino-3-(4-(trifluoromethyl)phenyl)propylamino)-4-(methoxymethyl)thiazol-5-yl)-1-methyl-1H-benzo[d]imidazol-2(3H)-one]
50 to 1000 nM | Cc1n[nH]c2ccc(-c3cnc(NC[C@@H](N)Cc4ccc(Cl)cc4)s3)cc12 [Example 3, N—((S)-2-amino-3-(4-chlorophenyl)propyl)-5-(3-methyl-1H-indazol-5-yl)thiazol-2-amine]
50 to 1000 nM | N[C@H](CNc1ncc(-c2cnc3c(c2)CC(=O)N3)s1)Cc1ccc(C(F)(F)F)nc1 [Example 227, 5-(2-((S)-2-amino-3-(6-(trifluoromethyl)pyridin-3-yl)propylamino)thiazol-5-yl)-1H-pyrrolo[2,3-b]pyridin-2(3H)-one]
1000 to 10000 nM | N#Cc1nc(NC[C@@H](N)Cc2ccc(C(F)(F)F)cc2)sc1-c1ccc2cnccc2c1 [Example 63, 2-((S)-2-amino-3-(4-(trifluoromethyl)phenyl)propylamino)-5-(isoquinolin-6-yl)thiazole-4-carbonitrile]
50 to 1000 nM | N[C@H](CNc1nc(-c2ccco2)c(-c2ccc3cnccc3c2)s1)Cc1ccc(C(F)(F)F)cc1 [Example 8, N—((S)-2-amino-3-(4-(trifluoromethyl)phenyl)propyl)-4-(furan-2-yl)-5-(isoquinolin-6-yl)thiazol-2-amine]
